According to publication PMC10044449 (Xenobiotica; the fate of foreign compounds in biological …, 2022):
“And” between values parts separate entries of the source, which are not always exact repeats. Equal values may be shown once.

Key:
[1] = Liver microsomal metabolic stability; assay type: in vitro ADME, mouse
[2] = Liver microsomal metabolic stability; assay type: in vitro ADME, rat
Plasma protein binding [3] = assay type: in vitro ADME; conditions: both, human, pH 7.4, Mean fu (fraction unbound), 37 °C
Plasma protein binding [4] = assay type: in vitro ADME; conditions: male, CD-1, mouse, pH 7.4, Mean fu (fraction unbound), 37 °C
Plasma protein binding [5] = assay type: in vitro ADME; conditions: rat plasma
Liver microsomal binding [6] = assay type: in vitro ADME; conditions: human, liver microsomes, pH 7.4
Liver microsomal binding [7] = assay type: in vitro ADME; conditions: ICR/CD-1, mouse, liver microsomes, pH 7.4
Liver microsomal binding [8] = assay type: in vitro ADME; conditions: Sprague Dawley, rat, liver microsomes, pH 7.4
[9] = Prediction of in vivo CLH from in vitro CLint; assay type: in vitro ADME
[10] = Prediction of in vivo CLH from in vitro CLint; assay type: in vitro ADME, mouse; conditions: for Predicted in vivo CLH: mouse
[11] = Prediction of in vivo CLH from in vitro CLint; assay type: in vitro ADME, rat; conditions: for Predicted in vivo CLH: rat
[12] = UHPLC/MS metabolite characterisation, liver microsome incubations; assay type: in vitro ADME; conditions: 15 minute human microsome incubation
[13] = as above; assay type: in vitro ADME; conditions: 5 minute mouse liver microsome incubation
[14] = as above; assay type: in vitro ADME; conditions: 5 minute rat liver microsome incubation
human hepatocytes = assay: UHPLC/MS metabolite characterisation, hepatocyte incubations; assay type: in vitro ADME; conditions: 120 minute human hepatocyte incubation
[15] = Mouse pharmacokinetic study; assay type: in vivo, Swiss albino mice; conditions: mice; for AUC(0-t): AUClast
[16] = Efficacy in a mouse model; assay type: in vivo; conditions: corresponds to ca. 0.4 mg/kg in mice
Escherichia coli GUS = conditions: ref Pellock et al. 2018; cited from earlier work
[17] = mice received ca. 0.4 mg/kg; ref Bhatt et al. 2020; cited from earlier work
[18] = tested on: microbial versus mammalian β-glucuronidases; conditions: ref Pellock et al. 2018; cited from earlier work
[19] = Hepatocyte metabolic stability; conditions: human, hepatocytes
[20] = Hepatocyte metabolic stability; conditions: ICR/CD-1, mouse, hepatocytes
[21] = Hepatocyte metabolic stability; conditions: Sprague Dawley, rat, hepatocytes
[22] = Caco-2 bidirectional permeability; conditions: human, Caco-2, pH 7.4
Caco-2 cells = assay: Caco-2 bidirectional permeability; conditions: Caco-2, without inhibitor mix
[23] = Liver microsomal metabolic stability
[24] = ICR/CD-1, mouse, liver microsomes, pH 7.4
[25] = Sprague Dawley, rat, liver microsomes, pH 7.4

Which half-life at 1 μM [1, 24] does the source give for `C1CCc2c(c(N3CCOCC3)nc3sc4c(N5CCNCC5)nnnc4c23)C1` [UNC10201652, 4-(8-(piperazin-1-yl)-1,2,3,4-tetrahydro-[1,2,3]triazino[4′,5′:4,5]thieno[2,3-c]isoquinolin-5-yl)morpholine] here?
The half-life at 1 μM was 12 min.

And the microsomal CLint at 1 μM [1, 24]?
Its microsomal CLint at 1 μM is 115 µL/min/mg.

And the “Stability in control incubation in the absence of NADPH” value (from here on “Stability in control incubation”) ([1]; mouse liver microsomes, without NADPH, 45 min)?
Its value is “stable”.

What about the half-life at 1 μM [2, 25] of the same compound?
The half-life at 1 μM was 7.14 min.

And the microsomal CLint at 1 μM [2, 25]?
Its microsomal CLint at 1 μM is 194 µL/min/mg.

What about the “Stability in control incubation” value ([2]; rat liver microsomes, without NADPH, 45 min) of the same compound?
The value was “stable”.

And the fraction unbound at 4 h, 2 μM (Plasma protein binding [3])?
Its fraction unbound at 4 h, 2 μM is 0.0548.

And the fraction unbound at 4 h, 2 μM (Plasma protein binding [4])?
The fraction unbound at 4 h, 2 μM was 0.0648.

And the “Extent of plasma protein binding” value (Plasma protein binding [5])?
The value was 89%.

What about the fraction unbound at 4 h, 2 μM (Liver microsomal binding [6]) of the same compound?
Its fraction unbound at 4 h, 2 μM is 0.642.

What about the fraction unbound at 4 h, 2 μM (Liver microsomal binding [7]) of the same compound?
Its fraction unbound at 4 h, 2 μM is 0.453.

What about the fraction unbound at 4 h, 2 μM (Liver microsomal binding [8]) of the same compound?
Its fraction unbound at 4 h, 2 μM is 0.618.

What about the “Predicted CLH as % of hepatic blood flow” value ([9]; human) of the same compound?
Its value is “approximately 22 % of hepatic blood flow”.

What about the “Predicted in vivo CLH” value ([9]; human, scaled from hepatocyte CLint) of the same compound?
The value was 4.65 mL/min/kg.

And the “Predicted in vivo CLH” value ([9]; human, scaled from microsomal CLint)?
The value was 3.51 mL/min/kg.

What about the “Predicted CLH in human” value ([9]; overall figure from microsomal and hepatocyte data) of the same compound?
The value was 4 mL/min/kg.

And the “Scaled hepatocyte CLint as % of hepatic blood flow” value ([10]; mouse hepatocytes)?
Its value is > 60 % of hepatic blood flow.

What about the “Predicted in vivo CLH” value ([10]; scaled from hepatocyte CLint) of the same compound?
The value was 75.9 mL/min/kg.

What about the “Predicted in vivo CLH” value ([10]; scaled from microsomal CLint) of the same compound?
Its value is 42.1 mL/min/kg.

What about the “Scaled hepatocyte CLint as % of hepatic blood flow” value ([11]; rat hepatocytes) of the same compound?
The value was > 60 % of hepatic blood flow.

And the “Predicted in vivo CLH” value ([11]; scaled from hepatocyte CLint)?
The value was 59.8 mL/min/kg.

What about the “Predicted in vivo CLH” value ([11]; scaled from microsomal CLint) of the same compound?
Its value is 43.5 mL/min/kg.

And the “Area percentage in sample (% of total drug-related material by MS area)” value [12]?
Its value is “ca. 82%”.

What about the “Area percentage in sample (% of total drug-related material by MS area)” value [13] of the same compound?
Its value is “ca. 86%”.

And the “Area percentage in sample (% of total drug-related material by MS area)” value [14]?
Its value is “ca. 92%”.

And the “Area percentage in sample (% of total drug-related material by MS area)” value (human hepatocytes)?
The value was “ca. 48%”.

And the AUC(0-inf) ([15]; male, Swiss albino, mouse, plasma, iv, 3 mg/kg, AUCINF, IV 3 mg/kg)?
Its AUC(0-inf) is 154 ng·h/mL.

And the AUC(0-t) ([15]; male, Swiss albino, mouse, plasma, iv, 3 mg/kg, IV 3 mg/kg)?
Its AUC(0-t) is 137 ng·h/mL.

What about the Vd ([15]; male, Swiss albino, mouse, plasma, iv, 3 mg/kg, Vss, IV 3 mg/kg) of the same compound?
Its Vd is 16.7 L/kg.

And the AUC(0-t) ([15]; male, Swiss albino, mouse, plasma, po, 3 mg/kg, PO 3 mg/kg)?
Its AUC(0-t) is about 20 ng·h/mL.

And the Cmax ([15]; male, Swiss albino, mouse, plasma, po, 3 mg/kg, Cmax, PO 3 mg/kg)?
Its Cmax is 15.2 ng/mL.

And the Tmax ([15]; male, Swiss albino, mouse, plasma, po, 3 mg/kg, Tmax, PO 3 mg/kg)?
Its Tmax is 15 min.

What about the “Tolerability / clinical signs” value ([15]; 3 mg/kg IV and PO, with and without ABT, up to 24 h post dose) of the same compound?
The value was “no clinical signs were observed”.

What about the “Plasma concentration at the 24 h time point” value ([15]; IV 3 mg/kg, 24 h) of the same compound?
The value was “not detectable”.

What about the “Decrease in plasma clearance after ABT” value ([15]; IV 3 mg/kg, ABT versus no ABT) of the same compound?
Its value is “ca. 2.5 fold”.

And the “Increase in Vss after ABT” value ([15]; IV 3 mg/kg, ABT versus no ABT)?
Its value is “ca. 2 fold”.

What about the “Increase in plasma half-life after ABT” value ([15]; IV 3 mg/kg, ABT versus no ABT) of the same compound?
Its value is “ca. 6 fold”.

What about the “CL (plasma clearance)” value ([15]; IV 3 mg/kg, 3 mg/kg) of the same compound?
The value was 325.0 mL/min/kg.

And the Vss ([15]; IV 3 mg/kg, 3 mg/kg)?
Its Vss is 16.7 L/kg.

What about the “Time of Cmax post dose” value ([15]; PO 3 mg/kg) of the same compound?
The value was 15 min.

And the “F (oral bioavailability, from AUClast)” value ([15]; PO 3 mg/kg + ABT 50 mg/kg 2 h prior)?
The value was 184%.

And the “Increase in plasma Cmax after ABT” value ([15]; PO 3 mg/kg, ABT versus no ABT)?
The value was “greater than 10 fold”.

What about the “F (oral bioavailability, from AUClast)” value ([15]; PO 3 mg/kg, 3 mg/kg) of the same compound?
Its value is 15% and 15^c %.

What about the Local gut concentration [16] of the same compound?
Its Local gut concentration is “approximately 90 μM”.

What about the IC50 (Escherichia coli GUS) of the same compound?
Its IC50 is 117 nM.

What about the “Efficacy in a mouse model” value [17] of the same compound?
Its value is “good efficacy”.

And the “Specificity microbial versus mammalian β-glucuronidases” value [18]?
The value was “highly specific inhibitor”.

What about the half-life at 1 μM [19] of the same compound?
The half-life at 1 μM was 66.4 min.

What about the hepatocyte CLint at 1 μM [19] of the same compound?
Its hepatocyte CLint at 1 μM is 20.9 µL/min/1e6 cells.

And the half-life at 1 μM [20]?
Its half-life at 1 μM is 11.9 min.

What about the hepatocyte CLint at 1 μM [20] of the same compound?
The hepatocyte CLint at 1 μM was 116 µL/min/1e6 cells.

What about the half-life at 1 μM [21] of the same compound?
The half-life at 1 μM was 9.89 min.

What about the hepatocyte CLint at 1 μM [21] of the same compound?
Its hepatocyte CLint at 1 μM is 140 µL/min/1e6 cells.

What about the efflux ratio at 120 min, 10 μM [22] of the same compound?
The efflux ratio at 120 min, 10 μM was 2.7.

What about the “Mean A-B Papp” value (Caco-2 cells; 120 min, pH 7.4) of the same compound?
The value was 5.88 cm/s (×10^−6).

And the “Mean B-A Papp” value (Caco-2 cells; 120 min, pH 7.4)?
Its value is 15.9 cm/s (×10^−6).

What about the “Stability in control incubation” value ([23]; human liver microsomes, without NADPH, 45 min) of the same compound?
The value was “stable”.

And the half-life at 1 μM ([23]; human, microsomes, pH 7.4)?
The half-life at 1 μM was 28.8 min.

And the microsomal CLint at 1 μM ([23]; human, microsomes, pH 7.4)?
Its microsomal CLint at 1 μM is 48.1 µL/min/mg.

For `COc1ccc2c(c1)[C@]13CCCC[C@@H]1[C@H](C2)N(C)CC3` [dextromethorphan, reference compound], which microsomal CLint at 1 μM ([23]; human, microsomes, pH 7.4) is on record?
The microsomal CLint at 1 μM was 44.8 µL/min/mg.

Which Efflux ratio (Caco-2 cells) does the source give for `C[C@]12CC[C@@H]3c4ccc(OS(=O)(=O)O)cc4CC[C@H]3[C@@H]1CCC2=O` [oestrone 3-sulfate, reference compound] here?
The Efflux ratio was 105.
